From PubChem BioAssay AID2060623 (Molecular Pharmacology Branch, DTP, NCI, 2025)
pIC50: −log10 of the molar value. Where “and” joins values, the source holds several entries; their conditions need not be identical. Equal values may be shown once.

Test system: 227483-062-R1-J1-PDC complex spheroids with HUVEC/MSC, viability
Assay: Anticancer human tumor 227483-062-R1-J1-PDC patient-derived pancreatic carcinoma cell line growth inhibition [CLK]
Settings: for viability, T/C: stronger effect = lower value
From the text: A high-throughput screen of multi-cell type tumor spheroids was designed to identify active combinations of […] and targeted small molecules. Complex spheroids include a stromal component modeled by human endothelial cells (HUVEC) and fibroblasts modeled by human mesenchymal stem cells (MSCs). The concentration ranges selected for each drug and investigational agent were based upon clinically achievable concentrations if the clinical Cmax of the agent was known.
Compounds. The drugs and investigational agents: cirtuvivint (SM08502; NSC835563), CC-671 (NSC850746), vemurafenib (NSC761431), tapotoclax (NSC804041), sotorasib (NSC818433), adagrasib (NSC831453), MRTX-1133 (NSC836407), BAY2416964 (NSC825713), copanlisib (NSC816437), inavolisib (NSC800729), abemaciclib (NSC768073), osimertinib (NSC779217), entinostat (NSC756642), eltanexor (KPT-8602, NSC794443), venetoclax (NSC766270), ceralasertib (NSC777638), bortezomib (NSC756655), olaparib (NSC753686), talazoparib (NSC767125), alisertib (NSC759677), peposertib (NSC802822), gemcitabine (NSC613327), 5-fluorouracil (NSC19893), SN-38 (NSC673596), oxaliplatin (NSC266046), paclitaxel (NSC125973), and doxorubicin (NSC123127), were obtained from the National Cancer Institute (NCI) Developmental Therapeutics Program Chemical Repository. The FDA-approved anticancer drug set is available from the Developmental Therapeutics Program at https://dtp.cancer.gov/organization/dscb/obtaining/available plates.htm. […] The stock solutions were prepared in dimethyl sulfoxide (DMSO, Sigma-Aldrich, St. Louis, MO, cat. D2650), except for the platinum complexes which were prepared in saline (Quality Biological, Gaithersburg, MD, cat. 114-055-101), at 800-fold the tested concentration and stored at -70 degrees C prior to their use. All drugs and investigational agents were tested over a range starting from a high concentration at or near the clinical Cmax and decreasing in half-log increments. If the clinical Cmax for an agent had not been determined, the highest concentration tested was 10 microM.
Cell Culture. All cells were maintained in an incubator at 37 degrees C and 5% CO2 with 95% humidity. The PDC lines were cultured according to standard operating procedures established by the NCI PDMR. Briefly, all PDCs were thawed and cultured in Matrigel-coated flasks prepared with a working solution of 1X Ham's F-12 nutrient mix, without supplementation (Invitrogen, Waltham, MA, cat. 11765054), 100 U/mL penicillin-streptomycin (Invitrogen, cat. 15140122), and 2.5% Matrigel (Corning Inc., Corning, NY, cat. 354248) for the first three passages. The 947758-054-R-J2-PDC line was cultured in 6B/Colon 1A media, which includes advanced DMEM/F-12 (Thermo Fisher Scientific, cat. 12634028), 10 mM HEPES (Thermo Fisher Scientific, cat. 15630080), 1X GlutaMAX supplement (Thermo Fisher Scientific, cat. 35050061), 0.1 mg/mL primocin (InvivoGen, cat. ant-pm-2), 10% defined fetal bovine serum, heat inactivated (HyClone Laboratories Inc., cat. SH30070.03HI), 1.25 mM N-Acetyl-L-cysteine (Sigma-Aldrich, cat. A9165), 10 mM nicotinamide (Sigma-Aldrich, cat. N0636), 1X B-27 supplement (Thermo Fisher Scientific, cat. 17504044), 1X N-2 supplement (Thermo Fisher Scientific, cat. 17502048), and 10 microM Y-27632 dihydrochloride (Tocris Bioscience, cat. 1254). The 876862-298-R-J1-PDC was cultured in 6E media, which includes all 6B/Colon 1A media components plus 50% L-WRN conditioned media (ATCC, cat. CRL-3276), 50 ng/mL recombinant human EGF recombinant protein (hEGF; Thermo Fisher Scientific, cat. PHG0311), 10 ng/mL recombinant human fibroblast growth factor 10 (hGFG-10; PeproTech, cat. 100-26), 1 ng/mL recombinant human fibroblast growth factor 2 (hFGF-2; PeproTech, cat. 100-18B), and 1 µM prostaglandin E2 (PGE2; Tocris, cat. 2296). The 227483-062-R1-J1-PDC line was cultured in Panc media, containing all 6E components except hFGF-2, with the addition of 500 nM SB-431542 (Selleckchem, cat. S1067) and 10 nM gastrin (Tocris, cat. 3006). […]

[1] = curve of first compound, second compound 0.0316 µM
[2] = curve of first compound, second compound 0.1 µM
[3] = curve of first compound, second compound 0.316 µM
[4] = curve of first compound, second compound 1 µM
[5] = curve of first compound, second compound 3.16 µM
[6] = curve of first compound, second compound 10 µM
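Note: spheroids exposed to compounds for seven days before readout.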
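Throughout, for viability, T/C: percent of DMSO vehicle control luminescence as 100% viability.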

NC(=O)C(=Cn1cnc(-c2cc(C(F)(F)F)cc(C(F)(F)F)c2)n1)c1cncnc1 + CN1CCN(c2cc(C(=O)Nc3cc4cc(-c5cnn(C)c5)ccc4cn3)ccn2)CC1
pIC50 [1]: 6.41
pIC50 [2]: 7.21
pIC50 [3]: > 8.02
pIC50 [4]: > 8.02
pIC50 [5]: > 8.02
pIC50 [6]: > 8.02
viability, T/C (second compound 0.0316 µM, first compound 0.00949 µM): 83.4%
viability, T/C (second compound 0.0316 µM, first compound 0.03 µM): 105%
viability, T/C (second compound 0.0316 µM, first compound 0.0949 µM): 78.6%
viability, T/C (second compound 0.0316 µM, first compound 0.3 µM): 60.6%
viability, T/C (second compound 0.0316 µM, first compound 0.949 µM): 18.8%
viability, T/C (second compound 0.0316 µM, first compound 3 µM): 5.44%
viability, T/C (second compound 0.1 µM, first compound 0.00949 µM): 69.7%
viability, T/C (second compound 0.1 µM, first compound 0.03 µM): 76.6%
viability, T/C (second compound 0.1 µM, first compound 0.0949 µM): 35.9%
viability, T/C (second compound 0.1 µM, first compound 0.3 µM): 13.9%
viability, T/C (second compound 0.1 µM, first compound 0.949 µM): 3.19%
viability, T/C (second compound 0.1 µM, first compound 3 µM): 1.66%
viability, T/C (second compound 0.316 µM, first compound 0.00949 µM): 3.14%
viability, T/C (second compound 0.316 µM, first compound 0.03 µM): 3.15%
viability, T/C (second compound 0.316 µM, first compound 0.0949 µM): 1.63%
viability, T/C (second compound 0.316 µM, first compound 0.3 µM): 1.68%
viability, T/C (second compound 0.316 µM, first compound 0.949 µM): 1.4%
viability, T/C (second compound 0.316 µM, first compound 3 µM): 1.39%
viability, T/C (second compound 1 µM, first compound 0.00949 µM): 1.5%
viability, T/C (second compound 1 µM, first compound 0.03 µM): 1.97%
viability, T/C (second compound 1 µM, first compound 0.0949 µM): 1.83%
viability, T/C (second compound 1 µM, first compound 0.3 µM): 2.32%
viability, T/C (second compound 1 µM, first compound 0.949 µM): 2.43%
viability, T/C (second compound 1 µM, first compound 3 µM): 2.17%
viability, T/C (second compound 3.16 µM, first compound 0.00949 µM): 1.89%
viability, T/C (second compound 3.16 µM, first compound 0.03 µM): 3.42%
viability, T/C (second compound 3.16 µM, first compound 0.0949 µM): 3.73%
viability, T/C (second compound 3.16 µM, first compound 0.3 µM): 5.05%
viability, T/C (second compound 3.16 µM, first compound 0.949 µM): 3.43%
viability, T/C (second compound 3.16 µM, first compound 3 µM): 3.12%
viability, T/C (second compound 10 µM, first compound 0.00949 µM): 1.57%
viability, T/C (second compound 10 µM, first compound 0.03 µM): 2.14%
viability, T/C (second compound 10 µM, first compound 0.0949 µM): 2.32%
viability, T/C (second compound 10 µM, first compound 0.3 µM): 2.15%
viability, T/C (second compound 10 µM, first compound 0.949 µM): 1.97%
viability, T/C (second compound 10 µM, first compound 3 µM): 1.44%

COC1C=CCC(C)C(C)S(=O)(=O)NC(=O)c2ccc3c(c2)N(CC2CCC21)CC1(CCCc2cc(Cl)ccc21)CO3 (stereo unspecified) + CN1CCN(c2cc(C(=O)Nc3cc4cc(-c5cnn(C)c5)ccc4cn3)ccn2)CC1
pIC50 [1]: 5.23
pIC50 [2]: 6.51
pIC50 [3]: > 7.50
pIC50 [4]: > 7.50
pIC50 [5]: > 7.50
pIC50 [6]: > 7.50
viability, T/C (second compound 0.0316 µM, first compound 0.0316 µM): 94.5%
viability, T/C (second compound 0.0316 µM, first compound 0.1 µM): 89.8%
viability, T/C (second compound 0.0316 µM, first compound 0.316 µM): 109%
viability, T/C (second compound 0.0316 µM, first compound 1 µM): 87.1%
viability, T/C (second compound 0.0316 µM, first compound 3.16 µM): 82.4%
viability, T/C (second compound 0.0316 µM, first compound 10 µM): 23.2%
viability, T/C (second compound 0.1 µM, first compound 0.0316 µM): 74.2%
viability, T/C (second compound 0.1 µM, first compound 0.1 µM): 77.4%
viability, T/C (second compound 0.1 µM, first compound 0.316 µM): 45.6%
viability, T/C (second compound 0.1 µM, first compound 1 µM): 25.9%
viability, T/C (second compound 0.1 µM, first compound 3.16 µM): 14.9%
viability, T/C (second compound 0.1 µM, first compound 10 µM): 9.47%
viability, T/C (second compound 0.316 µM, first compound 0.0316 µM): 5.64%
viability, T/C (second compound 0.316 µM, first compound 0.1 µM): 6.22%
viability, T/C (second compound 0.316 µM, first compound 0.316 µM): 4.57%
viability, T/C (second compound 0.316 µM, first compound 1 µM): 5.41%
viability, T/C (second compound 0.316 µM, first compound 3.16 µM): 4.64%
viability, T/C (second compound 0.316 µM, first compound 10 µM): 2.38%
viability, T/C (second compound 1 µM, first compound 0.0316 µM): 1.87%
viability, T/C (second compound 1 µM, first compound 0.1 µM): 1.41%
viability, T/C (second compound 1 µM, first compound 0.316 µM): 1.74%
viability, T/C (second compound 1 µM, first compound 1 µM): 2.02%
viability, T/C (second compound 1 µM, first compound 3.16 µM): 3.06%
viability, T/C (second compound 1 µM, first compound 10 µM): 3.77%
viability, T/C (second compound 3.16 µM, first compound 0.0316 µM): 4.46%
viability, T/C (second compound 3.16 µM, first compound 0.1 µM): 3.64%
viability, T/C (second compound 3.16 µM, first compound 0.316 µM): 3.99%
viability, T/C (second compound 3.16 µM, first compound 1 µM): 2.73%
viability, T/C (second compound 3.16 µM, first compound 3.16 µM): 2.81%
viability, T/C (second compound 3.16 µM, first compound 10 µM): 1.89%
viability, T/C (second compound 10 µM, first compound 0.0316 µM): 4.15%
viability, T/C (second compound 10 µM, first compound 0.1 µM): 2.18%
viability, T/C (second compound 10 µM, first compound 0.316 µM): 2.3%
viability, T/C (second compound 10 µM, first compound 1 µM): 2.91%
viability, T/C (second compound 10 µM, first compound 3.16 µM): 2.23%
viability, T/C (second compound 10 µM, first compound 10 µM): 1.54%

CC1COCCN1c1cc(C2(S(C)(=N)=O)CC2)nc(-c2ccnc3[nH]ccc23)n1 (stereo unspecified)
viability, T/C (compound 0.0316 µM): 98% and 93.4%
viability, T/C (compound 0.1 µM): 93.6% and 101%
viability, T/C (compound 0.316 µM): 89.4% and 103%
viability, T/C (compound 1 µM): 110% and 109%
viability, T/C (compound 3.16 µM): 86.9% and 78.7%
viability, T/C (compound 10 µM): 62.2% and 53.5%
pIC50 (curve of compound): < 5.00
